Earlier results in US9993454B2, “Solid nanoparticle formulation of water insoluble pharmaceutical substances with reduced Ostwald ripening” (Luminus Biosciences, Inc., priority 2006, dated 2018).

Conditions: most test systems

## C/C(=C\c1csc(C)n1)[C@@H]1C[C@@H]2O[C@]2(C)CCC[C@H](C)[C@H](O)[C@@H](C)C(=O)C(C)(C)[C@@H](O)CC(=O)O1 [epothilone B]
  effectiveness relative to epothilone A: approximately ten-time more effective
